Laboratory results taken from publication PMC5750218, “Protein-inspired antibiotics active against vancomycin- and daptomycin-resistant bacteria” (Nature Communications, 2018).
Values after ≈ are worked out from the molar mass of the structure shown. Like-named read-outs stand apart in the source and are kept apart here.

Columns and labels:
[1] = system: Vancomycin-resistant S. aureus NARSA VRS4; experiment: microbe, parasite or virus in culture; assay type: cell-based, Staphylococcus aureus; conditions: for MIC VRSA: Vancomycin-resistant NARSA VRS4
[2] = system: Methicillin-resistant S. aureus ATCC 43300; experiment: microbe, parasite or virus in culture; conditions: for MIC MRSA: ATCC 43300, 24 h
Summary of the method: (§1)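 Each compound was serially diluted twofold in Mueller Hinton broth, spanning 8 to 0.003 µg mL^−1, and incubated with bacteria for 24 h at 37 °C before visual scoring of growth.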

[3] = system: Multi-drug-resistant S. pneumoniae ATCC 700677; experiment: microbe, parasite or virus in culture; conditions: for MIC MDR S.P.: ATCC 700677
Summary of the method: as §1

[4] = system: Vancomycin-resistant (VanA) Enterococcus faecium ATCC 51559; experiment: microbe, parasite or virus in culture; conditions: for MIC VRE: ATCC 51559
Summary of the method: as §1

[5] = system: Vancomycin-intermediate S. aureus NRS1; experiment: microbe, parasite or virus in culture; conditions: for MIC VISA: Vancomycin-intermediate NRS1
Summary of the method: as §1

S. pneumoniae ATCC 33400 = experiment: microbe, parasite or virus in culture; assay type: cell-based, Streptococcus pneumoniae; conditions: Streptococcus pneumoniae, ATCC33400, 24 h
Procedure: (§2) The compounds, along with standard antibiotics were serially diluted twofold across the wells of 96-well non-binding surface (NBS) polystyrene plates (Corning 3641). […] Standards ranged from 64 to 0.03 µg mL^−1 and compounds from 8 to 0.003 µg mL^−1 with final assay volumes of 100 µL per well. Gram-positive bacteria were cultured in Mueller Hinton broth (MHB) (Bactolaboratories, Cat. no. 211443) at 37 °C overnight. A sample of each culture was then diluted 40-fold in fresh MHB and incubated at 37 °C for 2–3 h. The resultant mid-log phase cultures were added to the compound-containing 96-well plates to give a final cell density of 5 × 10^5 colony forming unit (CFU) mL^−1. All the plates were covered and incubated at 37 °C for 24 h. MICs were the lowest concentration showing no visible growth.

[6] = system: S. pneumoniae ATCC 700677 MDR; experiment: microbe, parasite or virus in culture; assay type: cell-based, Streptococcus pneumoniae; conditions: Streptococcus pneumoniae, ATCC700677, 24 h
Procedure: as §2

Cytotoxicity MTT assay [7] = assay type: cell-based, human; conditions: human
Procedure: Compound cytotoxicity was evaluated against HepG2 (ATCC-®HB-8065 liver hepatoceullular carcinoma) and HEK293 (ATCC®CRL-1573, embryonic kidney) human cell lines using standard (3-(4,5-dimethylthiazol-2-yl)−2,5-diphenyltetrazolium bromide (MTT) assay protocol with slight changes. In brief, HepG2 and HEK293 cells (assessed annually for mycoplasma contamination) were seeded as 1.5 × 10^4 cells per well in a clear 96-well tissue culture treated plate in a final volume of 100 μL in Dulbecco’s Modified Eagle Medium (DMEM)(GIBCO-Invitrogen #11995-073), in which 1% of FBS was added. Cells were incubated for 24 h at 37 °C, 5% CO2 to allow cells to attach to the plates. […] After the incubation, 0.4 mg mL^−1 MTT (3-(4,5-dimethylthiazol-2-yl)−2,5-diphenyltetrazolium bromide) (Invitrogen) was added to each well. The plates were then incubated for 2 h at 37 °C, 5% CO2. The media was removed, and purple formazan crystals were resuspended in 60 μL of DMSO. The absorbance was read at 570 nm using a Polarstar Omega plate reader. The data was then analysed by Prism software. Results are presented as the average percentage of control ± S.D. for each set of duplicate wells using the following equation: percent viability = (ABSTEST – ABSPOSITIVE CTRL / ABSUNTREATED –ABS POSITIVE CTRL)×100.

[8] = system: S. aureus ATCC 43300 MRSA; experiment: microbe, parasite or virus in culture; assay type: cell-based, Staphylococcus aureus; conditions: Staphylococcus aureus, 24 h
Procedure: as §2

Cytotoxicity MTT assay [9] = assay type: cell-based, human; conditions: human; remark: listed apart in the source
Procedure: Compound cytotoxicity was evaluated against HepG2 (ATCC-®HB-8065 liver hepatoceullular carcinoma) and HEK293 (ATCC®CRL-1573, embryonic kidney) human cell lines using standard (3-(4,5-dimethylthiazol-2-yl)−2,5-diphenyltetrazolium bromide (MTT) assay protocol with slight changes. In brief, HepG2 and HEK293 cells (assessed annually for mycoplasma contamination) were seeded as 1.5 × 10^4 cells per well in a clear 96-well tissue culture treated plate in a final volume of 100 μL in Dulbecco’s Modified Eagle Medium (DMEM)(GIBCO-Invitrogen #11995-073), in which 1% of FBS was added. Cells were incubated for 24 h at 37 °C, 5% CO2 to allow cells to attach to the plates. Compounds prepared at 100 µM to 0.046 µM in threefold dilutions were added into each well and incubated for 24 h at 37 °C, 5% CO2. After the incubation, 0.4 mg mL^−1 MTT (3-(4,5-dimethylthiazol-2-yl)−2,5-diphenyltetrazolium bromide) (Invitrogen) was added to each well. The plates were then incubated for 2 h at 37 °C, 5% CO2. The media was removed, and purple formazan crystals were resuspended in 60 μL of DMSO. The absorbance was read at 570 nm using a Polarstar Omega plate reader. The data was then analysed by Prism software. Results are presented as the average percentage of control ± S.D. for each set of duplicate wells using the following equation: percent viability = (ABSTEST – ABSPOSITIVE CTRL / ABSUNTREATED –ABS POSITIVE CTRL)×100.

Haemolysis assay = assay type: cell-based; conditions: human, whole blood
Procedure: Haemolytic activity was measured as previously described with slight modifications, [45]. Fresh human venal blood was collected from healthy volunteers and pretreated with the anticoagulant sodium citrate. Serial twofold dilutions of each antibiotic, dissolved in 0.9% NaCl solution, were added to fresh human whole blood (50% final, vol:vol) to the final volume of 80 μL and incubated at 37 °C for 3 h on a horizontal shaker at 200 rpm. For negative and positive controls, human whole blood in 0.9% NaCl solution (A blank) and in sdH2O (A water) were used, respectively. After incubation, both test and A blank were mixed with 1 mL 0.9% NaCl solution, or sdH2O for the complete […] A water. After centrifugation of samples at 2500 rpm (700 × g) for 5 min, the release of haemoglobin was monitored by measuring the absorbance (A sample) of the supernatant at 540 nm using BMG Labtech PolarStar Omega multimode reader. The percentage of haemolysis was calculated according to the equation: %haemolysis=Asample-Ablank∕Awater-Ablank×100

MIC VRSA [1] [µg/mL]	MIC MRSA [2] [µg/mL]	MIC MDR S.P. [3] [µg/mL]	MIC VRE [4] [µg/mL]	MIC VISA [5] [µg/mL]	Structure (SMILES)	CC50 at 24 h (Cytotoxicity MTT assay [7]) [µM]	CC50 at 24 h (Cytotoxicity MTT assay [9]) [µM]	also measured
0.5 (≈ 0.248 µM)	0.015 (≈ 0.00744 µM)	0.015 (≈ 0.00744 µM)	4 (≈ 1.98 µM)	0.125 (≈ 0.062 µM)	CCCCCCCCCCC(=O)N[C@@H](CCCCN)C(=O)N[C@@H](CCCCN)C(=O)N[C@@H](CCCCNC(=O)[C@H]1NC(=O)[C@H]2NC(=O)[C@H](NC(=O)[C@@H]3NC(=O)[C@H](CC(N)=O)NC(=O)[C@H](NC(=O)[C@@H](CC(C)C)NC)[C@H](O)c4ccc(c(Cl)c4)Oc4cc3cc(c4O[C@@H]3O[C@H](CO)[C@@H](O)[C@H](O)[C@H]3O[C@H]3C[C@](C)(N)[C@H](O)[C@H](C)O3)Oc3ccc(cc3Cl)[C@H]2O)c2ccc(O)c(c2)-c2c(O)cc(O)cc21)C(=O)NC [Compound 22, nC10CO-KK-K(Vancomycin)-NHMe]	80	47	hemolysis at 3 h (Haemolysis assay; 100 µg mL-1): 1.9%; hemolysis at 3 h (Haemolysis assay; 1600 µg mL-1): 2.7%
0.75 (≈ 0.354 µM)	0.06 (≈ 0.0284 µM)	0.06 (≈ 0.0284 µM)	8 (≈ 3.78 µM)	0.75 (≈ 0.354 µM)	CCCCCCCCCC(=O)N[C@@H](CCCCN)C(=O)N[C@@H](CCCCN)C(=O)N[C@@H](CCCCN)C(=O)N[C@@H](CCCCNC(=O)[C@H]1NC(=O)[C@H]2NC(=O)[C@H](NC(=O)[C@@H]3NC(=O)[C@H](CC(N)=O)NC(=O)[C@H](NC(=O)[C@@H](CC(C)C)NC)[C@H](O)c4ccc(c(Cl)c4)Oc4cc3cc(c4O[C@@H]3O[C@H](CO)[C@@H](O)[C@H](O)[C@H]3O[C@H]3C[C@](C)(N)[C@H](O)[C@H](C)O3)Oc3ccc(cc3Cl)[C@H]2O)c2ccc(O)c(c2)-c2c(O)cc(O)cc21)C(=O)O [Compound 36, nC9CO-KKK-K(Vancomycin)-OH]	–	–	–

Further lines, the molecule ahead of its results:

Structure (SMILES)	MIC VRSA [1] [µg/mL]	MIC MRSA [2] [µg/mL]	MIC MDR S.P. [3] [µg/mL]	MIC VRE [4] [µg/mL]	MIC VISA [5] [µg/mL]	CC50 at 24 h (Cytotoxicity MTT assay [7]) [µM]	CC50 at 24 h (Cytotoxicity MTT assay [9]) [µM]	also measured
CCCCCCCCCCCC(=O)N[C@@H](CCCCN)C(=O)N[C@@H](CCCCN)C(=O)N[C@@H](CCCCN)C(=O)N[C@@H](CCCCNC(=O)[C@H]1NC(=O)[C@H]2NC(=O)[C@H](NC(=O)[C@@H]3NC(=O)[C@H](CC(N)=O)NC(=O)[C@H](NC(=O)[C@@H](CC(C)C)NC)[C@H](O)c4ccc(c(Cl)c4)Oc4cc3cc(c4O[C@@H]3O[C@H](CO)[C@@H](O)[C@H](O)[C@H]3O[C@H]3C[C@](C)(N)[C@H](O)[C@H](C)O3)Oc3ccc(cc3Cl)[C@H]2O)c2ccc(O)c(c2)-c2c(O)cc(O)cc21)C(=O)O [Compound 37, nC11CO-KKK-K(Vancomycin)-OH]	0.75 (≈ 0.35 µM)	0.005 (≈ 0.00233 µM)	<0.003	0.5 (≈ 0.233 µM)	0.06 (≈ 0.028 µM)	–	–	–
CCCCCCCCCCNCCN[C@@]1(C)C[C@H](O[C@H]2[C@H](Oc3c4cc5cc3Oc3ccc(cc3Cl)[C@@H](O)[C@@H](NC(=O)[C@@H](CC(C)C)NC)C(=O)N[C@@H](CC(N)=O)C(=O)N[C@H]5C(=O)N[C@H]3C(=O)N[C@H](C(=O)N[C@H](C(=O)O)c5cc(O)c(CNCP(=O)(O)O)c(O)c5-c5cc3ccc5O)[C@H](O)c3ccc(c(Cl)c3)O4)O[C@H](CO)[C@@H](O)[C@@H]2O)O[C@@H](C)[C@H]1O [Compound 2, Telavancin]	–	–	–	–	–	–	–	MIC (S. pneumoniae ATCC 33400; read-out: MIC S. pneumoniae ATCC 33400, 1% Survanta): 0.25 µg/mL (≈ 0.142 µM); MIC (S. pneumoniae ATCC 33400; read-out: MIC S. pneumoniae ATCC 33400, 5% Survanta): 0.5 µg/mL (≈ 0.285 µM); MIC (S. pneumoniae ATCC 33400; read-out: MIC S. pneumoniae ATCC 33400, no added Survanta): 0.125 to 0.25 µg/mL (≈ 0.0712 to 0.142 µM); MIC ([6]; read-out: MIC S. pneumoniae ATCC 700677 MDR, 1% Survanta): 0.06 to 0.125 µg/mL (≈ 0.0342 to 0.0712 µM); MIC ([6]; read-out: MIC S. pneumoniae ATCC 700677 MDR, 5% Survanta): 0.25 µg/mL (≈ 0.142 µM); MIC ([6]; read-out: MIC S. pneumoniae ATCC 700677 MDR, no added Survanta): 0.06 to 0.125 µg/mL (≈ 0.0342 to 0.0712 µM); CC50 at 24 h (Cytotoxicity MTT assay [7]; 24 h, MTT, 1% FBS, read-out: Cytotoxicity CC50 HepG2): > 100 µM; MIC ([1]; Staphylococcus aureus, VRSA, read-out: MIC VRSA): 1 µg/mL (≈ 0.57 µM); MIC ([2]; Staphylococcus aureus, ATCC43300|MRSA, 24 h, read-out: MIC MRSA, S. aureus ATCC 43300, NBS plates, MHB, 24 h, substance alone): 0.03 µg/mL (≈ 0.0171 µM); MIC ([8]; read-out: MIC S. aureus ATCC 43300 MRSA, 1% Survanta): 0.126 µg/mL (≈ 0.0715 µM); MIC ([8]; read-out: MIC S. aureus ATCC 43300 MRSA, 5% Survanta): 0.25 to 0.5 µg/mL (≈ 0.142 to 0.285 µM); MIC ([8]; read-out: MIC S. aureus ATCC 43300 MRSA, no added Survanta): 0.125 µg/mL (≈ 0.0712 µM); CC50 at 24 h (Cytotoxicity MTT assay [9]; 24 h, MTT, 1% FBS, read-out: Cytotoxicity CC50 HEK293): > 100 µM; MIC ([3]; Streptococcus pneumoniae, ATCC700677, read-out: MIC MDR S.P.): 0.06 µg/mL (≈ 0.0342 µM); MIC ([4]; Enterococcus faecium, ATCC51559 / VRE, read-out: MIC VRE): 2 µg/mL (≈ 1.14 µM); MIC ([5]; Staphylococcus aureus, NRS1 / VISA, read-out: MIC VISA): 0.25 µg/mL (≈ 0.142 µM)
CN[C@H](CC(C)C)C(=O)N[C@H]1C(=O)N[C@@H](CC(N)=O)C(=O)N[C@H]2C(=O)N[C@H]3C(=O)N[C@H](C(=O)N[C@H](C(=O)NCCCC[C@H](NC(=O)[C@H](CCCCN)NC(=O)[C@H](CCCCN)NC(C)=O)C(=O)O)c4cc(O)cc(O)c4-c4cc3ccc4O)[C@H](O)c3ccc(c(Cl)c3)Oc3cc2cc(c3O[C@@H]2O[C@H](CO)[C@@H](O)[C@H](O)[C@H]2O[C@H]2C[C@](C)(N)[C@H](O)[C@H](C)O2)Oc2ccc(cc2Cl)[C@H]1O [Compound 25, Ac-KK-K(Vancomycin)-OH]	>8	–	–	–	–	> 500	> 500	–
